Test results from article PMC6801448, “The Antioxidant and Antiproliferative Activities of 1,2,3-Triazolyl-L-Ascorbic Acid Derivatives” (International Journal of Molecular Sciences, 2019).
Read-outs that look alike come from different tables or passages of the source.

What was measured:
[1] = test system: HCT-116 (colorectal carcinoma); assay: MTT proliferation assay, HCT-116; assay type: cell-based; conditions: Homo sapiens, 72 h
Description: (§1) Human tumor cell lines HeLa (cervical carcinoma), SW620 (colorectal adenocarcinoma, metastatic), A549 (lung adenocarcinoma), MCF−7 (breast adenocarcinoma), CFPAC-1 (pancreatic adenocarcinoma, metastatic), HCT-116 (colorectal carcinoma), and HepG2 (hepatocellular carcinoma), and normal cell lines HFF-1 (foreskin fibroblasts) and WI-38 (immortalized human lung fibroblast), were from the US American Type Culture Collection (ATCC, Manassas, VA, USA). Cells were cultured in a liquid nutrient medium (Dulbecco’s Modified Eagle Medium, LONZA, Basel, Switzerland) supplemented with 10% fetal bovine serum (FBS, Gibco, Grand Island, NY, USA), 2 mM L-glutamine (GIBCO, Grand Island, NY, USA), 100 μg/mL penicillin, and 100 μg/mL streptomycin (LONZA, Basel, Switzerland), in an incubator (NÜVE, Ankara, Turkey), at a humid atmosphere with 5% CO2 at 37 °C. Trypsin/EDTA Solution (Lonza, Basel, Switzerland), was used for cell passaging and cell detachment.
(§2) Adherent cells were seeded on 96 well microtiter plates (Falcon, New York, NY, USA) at a seeding density of 5000 cells per well, added in 150 μL of cell suspension in a nutrient medium. 24 h after seeding, cells were treated with compound 4b–4g, 4i, 4k–4t, 4v, 7c–7g, and 7i–7q dilutions in the range of 0.01 μM to 100 μM. L-ascoric acid (Sigma Aldrich, Darmstadt, Germany) and Carboxyamidotriazole (Sigma Aldrich, Darmstadt, Germany) were used as control compounds. Incubation of the cells with the compounds were performed for 72 h in a 5% CO2, in humid atmosphere at 37 °C. After incubation, nutrient medium was removed and 40 μL of the MTT reagent ([…]-2,5-diphenyltetrazole bromide (Invitrogen, Carlsbad, CA, USA) was added to each well. 3 h after incubation, 160 μL of DMSO (VWR CHEMICALS, Radnor, PA, USA) were added to each well to dissolve the crystals of purple formazane. The absorbance was measured at 570 nm (TECAN SUNRISE Microtiter plate reader (Männedorf, Switzerland). The experimentally measured optical densities (OD) were converted to the PG (percentage of growth), using the formulas according to the protocol assumed by NIH (National Institute of Health). The IC50 values (concentration causing 50% cell growth inhibition) for each compound were calculated by regression analysis of the survival count curve of the concentrations of the tested compounds. The results were processed in Excel 2010 (Microsoft, Redmond, WA, USA).

WI-38 (lung fibroblasts) = assay: MTT proliferation assay, WI-38; assay type: cell-based; conditions: Homo sapiens, 72 h, normal lung fibroblasts
Description: as §1, §2

[2] = DPPH radical scavenging assay; assay type: biochemical
Description: Likewise, L-ASA, the 1,2,3-triazole L-ASA derivatives with free C2-OH and C3-OH groups were expected to be potent antioxidants. Therefore, they were tested as radical scavengers by reaction with the stable free radical 2,2-diphenyl-1-picrylhydrazyl (DPPH^•).
Antioxidant capacity of selected compounds was assessed by 2,2-diphenyl-1-picrylhydrazyl assay (DPPH, Sigma Aldrich, Darmstadt, Germany), in which the antioxidant activity of compounds is measured by the reaction between a stable radical of 1,1-diphenyl-2-picylhydrazil (DPPH^•) and a selected compound according to the manufacturer recommendations. Briefly, compounds 4b–4e, 4f–4h, 4k, 4l, 4o, 4p–4s, 4t, 4v, 7c–7f, 7i–7n, 7q, 7p, and 7o were tested at 0.06, 0.12, 0.18, 0.23, 0.25, and 0.28 mM. L-ascorbic acid was used as the reference compound. Absorbance was measured 5 and 10 min after incubation of the compounds with the DPPH reagent. The reduction of DPPH with selected compounds was monitored by measuring the absorbance at a wavelength of 517 nm on the monochromator (Infinite M200 PRO, TECAN, Männedorf, Switzerland).

[3] = test system: CFPAC-1 (ductal pancreatic adenocarcinoma); assay: MTT proliferation assay, CFPAC-1; assay type: cell-based; conditions: Homo sapiens, 72 h
Description: as §1, §2

[4] = test system: SW620 (colorectal adenocarcinoma, metastatic); assay: MTT proliferation assay, SW620; assay type: cell-based; conditions: Homo sapiens, SW-620, 72 h
Description: as §1, §2

[5] = test system: A549 (lung adenocarcinoma); assay: MTT proliferation assay, A549; assay type: cell-based; conditions: Homo sapiens, 72 h
Description: as §1, §2

[6] = test system: MCF-7 (breast adenocarcinoma); assay: MTT proliferation assay, MCF-7; assay type: cell-based, Human; conditions: Homo sapiens, MCF7; 72 h, MTT
Description: as §1, §2

[7] = test system: HeLa (cervical carcinoma); assay: MTT proliferation assay, HeLa; assay type: cell-based; conditions: Homo sapiens, 72 h
Description: as §1, §2

[8] = test system: HepG2 (hepatocellular carcinoma); assay: MTT proliferation assay, HepG2; assay type: cell-based; conditions: Homo sapiens, 72 h
Description: as §1, §2

[9] = 5 min treatment, read-out: IC50 of DPPH• inhibition, Treatm. 5 min
[10] = 10 min treatment, read-out: IC50 of DPPH• inhibition, Treatm. 10 min

Row | IC50 [1] [µM] | IC50 [2, 9] [µM] | IC50 [2, 10] [µM] | IC50 [3] [µM] | IC50 [4] [µM] | melting point [°C] | IC50 [5] [µM] | IC50 [6] [µM] | IC50 [7] [µM] | IC50 [8] [µM] | SMILES | IC50 (WI-38 (lung fibroblasts)) [µM]
1 | > 100 | 200 | 200 | > 100 | > 100 | 160 to 162 | > 100 | > 100 | > 100 | > 100 | O=C1O/C(=C\Cn2cc(CCCCl)nn2)C(O)=C1O [Compound 7p, 6-[4-chloropropyl-1,2,3-triazole-1-yl]-4,5-didehydro-5,6-dideoxy-L-ascorbic acid] | > 100
2 | > 100 | 200 | 190 | > 100 | > 100 | 180 to 183 | > 100 | > 100 | > 100 | > 100 | CCCCc1cn(C/C=C2\OC(=O)C(O)=C2O)nn1 [Compound 7m, 6-[4-butyl-1,2,3-triazole-1-yl]-4,5-didehydro-5,6-dideoxy-L-ascorbic acid] | > 100
3 | > 100 | 200 | 200 | > 100 | > 100 | 182 to 184 | > 100 | > 100 | > 100 | > 100 | CC(C)(C)c1cn(C/C=C2\OC(=O)C(O)=C2O)nn1 [Compound 7o, 6-[4-tert-butyl-1,2,3-triazole-1-yl]-4,5-didehydro-5,6-dideoxy-L-ascorbic acid] | > 100
4 | > 100 | 140 | 100 | > 100 | > 100 | 169 to 171 | > 100 | > 100 | > 100 | > 100 | CCCCCCCCCCc1cn(C/C=C2\OC(=O)C(O)=C2O)nn1 [Compound 7n, 6-(4-decyl-1,2,3-triazol-1-il)-4,5-didehydro-5,6-dideoxy-L-ascorbic acid] | > 100
5 | > 100 | 70 | 70 | > 100 | > 100 | 172 to 173 | > 100 | > 100 | > 100 | > 100 | O=C1O/C(=C\Cn2cc(CCO)nn2)C(O)=C1O [Compound 7q, 6-[4-(2-hydroxyethyl)-1,2,3-triazole-1-yl]-4,5-didehydro-5,6-dideoxy-L-ascorbic cid] | > 100

Further lines, the compound ahead of its results:

Row | SMILES | IC50 [1] [µM] | IC50 [2, 9] [µM] | IC50 [2, 10] [µM] | IC50 [3] [µM] | IC50 [4] [µM] | melting point [°C] | IC50 [5] [µM] | IC50 [6] [µM] | IC50 [7] [µM] | IC50 [8] [µM] | IC50 (WI-38 (lung fibroblasts)) [µM]
6 | CCCCCc1ccc(-c2cn(C/C=C3\OC(=O)C(O)=C3O)nn2)cc1 [Compound 7k, 4,5-didehydro-5,6-dideoxy-6-[4-(4-pentylphenyl)-1,2,3-triazole-1-yl]-L-ascorbic acid] | > 100 | – | – | > 100 | > 100 | 230 to 232 | > 100 | > 100 | > 100 | > 100 | > 100
7 | O=C1O/C(=C\Cn2cc(-c3cc(F)cc(F)c3)nn2)C(O)=C1O [Compound 7d] | > 100 | 230 | 230 | > 100 | > 100 | ≥ 200 | > 100 | > 100 | > 100 | > 100 | > 100
8 | COc1ccc(-c2cn(C/C=C3\OC(=O)C(O)=C3O)nn2)cc1 [Compound 7g, 4,5-didehydro-5,6-dideoxy-6-[4-(4-methoxyphenyl)-1,2,3-triazole-1-yl]-L-ascorbic acid] | > 100 | > 280 | 260 | > 100 | > 100 | 198 to 199 | > 100 | > 100 | > 100 | > 100 | > 100
9 | O=C1O/C(=C\Cn2cc(-c3cccc(O)c3)nn2)C(O)=C1O [Compound 7j, 4,5-didehydro-5,6-dideoxy-6-[4-(3-hydroxyphenyl)-1,2,3-triazole-1-yl]-L-ascorbic acid] | > 100 | – | – | > 100 | > 100 | 155 to 157 | > 100 | > 100 | > 100 | > 100 | > 100
10 | O=C1O/C(=C\Cn2cc(C3CC3)nn2)C(O)=C1O [Compound 7l, 6-[4-cyclopropyl-1,2,3-triazole-1-yl]-4,5-didehydro-5,6-dideoxy-L-ascorbic acid] | > 100 | 200 ± 10 | 200 | > 100 | > 100 | 176 to 178 | > 100 | > 100 | > 100 | > 100 | > 100
11 | O=C1O/C(=C\Cn2cc(-c3ccc(Br)cc3)nn2)C(O)=C1O [Compound 7e, 6-[4-(4-bromophenyl)-1,2,3-triazole-1-yl]-4,5-didehydro-5,6-dideoxy-L-ascorbic acid] | > 100 | – | – | > 100 | > 100 | 219 to 222 | > 100 | > 100 | > 100 | > 100 | > 100
12 | O=C1O/C(=C\Cn2cc(-c3cc(C(F)(F)F)cc(C(F)(F)F)c3)nn2)C(O)=C1O [Compound 7c, 4,5-didehydro-5,6-dideoxy-(4-(3,5-di-(trifluoromethyl)phenyl)-1,2,3-triazol-1-yl)-L-ascorbic acid] | > 100 | – | – | > 100 | > 100 | ≥ 200 | > 100 | > 100 | > 100 | > 100 | > 100
13 | Cc1ccc(-c2cn(C/C=C3\OC(=O)C(O)=C3O)nn2)cc1 [Compound 7f, 6-[4-tolyl-1,2,3-triazole-1-yl]-4,5-didehydro-5,6-dideoxy-L-ascorbic acid] | > 100 | 100 ± 20 | 100 ± 20 | > 100 | > 100 | 188 to 192 | > 100 | > 100 | > 100 | > 100 | > 100
14 | O=C1O[C@H]([C@@H](O)Cn2cc(CSC(=S)N3CCNCC3)nn2)C(O)=C1O [Compound 4v] | > 100 | 270 ± 10 | 270 | > 100 | > 100 | ≥ 250 | 98 | 37.3 | > 100 | > 100 | > 100
15 | O=c1[nH]cc(F)c(=O)[nH]1 [Compound 5-FU, 5-fluorouracil, reference compound] | – | – | – | 0.14 | 0.08 | – | 2.8 | 0.096 | 8.81 | 9.04 | 0.94
